Source: patent US20070264679A1, “Method for analyzing the activity of lipoxygenase using a water-soluble substrate” (Chungnam National University Industry Collaboration …, priority 2006, published 2007)

Columns and labels:
[1] = target: T1, soybean lipoxygenase-1 (LOX-1) (Glycine max, UniProt P08170); test: Kinetics of oxygenation of linoleic acid, soybean lysoPC or linoleoyl-lysoPC by soybean LOX-1 (absorbance at 234 nm); format: biochemical; settings: for Km: 50 mM borax buffer pH 9.0, 25° C., Lineweaver Burke plot; for Vm: soybean LOX-1, 50 mM borax buffer pH 9.0, 25° C., unit = one micromole conjugated diene per min
T1 construct: purchased Sigma-Aldrich Corp (St. Louis, Mo., USA) lipoxidase Type I-B
T1 sequence (P08170 1-839): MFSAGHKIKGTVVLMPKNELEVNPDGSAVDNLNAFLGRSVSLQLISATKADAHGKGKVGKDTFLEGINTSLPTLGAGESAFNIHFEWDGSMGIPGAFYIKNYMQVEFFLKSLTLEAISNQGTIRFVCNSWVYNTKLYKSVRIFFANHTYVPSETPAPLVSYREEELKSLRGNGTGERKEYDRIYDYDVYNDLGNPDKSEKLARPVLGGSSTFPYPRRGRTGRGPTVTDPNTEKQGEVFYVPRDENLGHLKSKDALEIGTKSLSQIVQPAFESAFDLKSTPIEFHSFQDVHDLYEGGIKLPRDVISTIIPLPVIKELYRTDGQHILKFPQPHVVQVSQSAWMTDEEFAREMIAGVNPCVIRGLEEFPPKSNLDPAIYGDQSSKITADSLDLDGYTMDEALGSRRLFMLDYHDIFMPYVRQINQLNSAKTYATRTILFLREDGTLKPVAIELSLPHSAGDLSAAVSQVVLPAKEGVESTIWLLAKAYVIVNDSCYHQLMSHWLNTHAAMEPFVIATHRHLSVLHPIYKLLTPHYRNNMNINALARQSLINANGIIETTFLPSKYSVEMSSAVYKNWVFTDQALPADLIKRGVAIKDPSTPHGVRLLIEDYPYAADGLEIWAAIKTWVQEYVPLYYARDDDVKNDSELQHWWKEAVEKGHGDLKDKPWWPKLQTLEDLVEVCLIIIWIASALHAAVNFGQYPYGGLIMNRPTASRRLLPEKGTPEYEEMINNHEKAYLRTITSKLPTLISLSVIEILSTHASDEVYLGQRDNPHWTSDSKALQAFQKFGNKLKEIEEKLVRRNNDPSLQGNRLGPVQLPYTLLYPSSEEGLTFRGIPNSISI
Method: Lipoxygenase-1 (LOX-1) activity was monitored at 25° C. by measuring the increase in absorbance at 234 nm due to the formation of hydroperoxide (ε234=25,000 M^−1 cm^−1) as previously reported (Axelrod et al, Methods Enzymol. 71 (1981) 441-451; Egmond et al, Eur. J. Biochem. 61 (1976) 93-100). […] One unit is defined as the amount of LOX-1 that can produce one micromole of conjugated diene per min.
LOX-1 was purified from soy bean lipoxidase preparation (Type I-B) according to the method of Finazzi Agro et al (Finazzi-Agro et al, Biochim. Biophys. Acta 326 (1973) 462-470). Briefly, soybean LOX-1 (100 mg) was dissolved in 0.1 M phosphate buffer (pH 6.8), and applied to DEAE Sephacel (1.5×25 cm). […] Protein amount was determined according to Lowry method (O. H. Lowry, N. J. Rosenbrough, A. L. Farr, R. J. Randall, J. Biol. Chem. 193 (1951) 265-275).
Next, the effect of linoleoyl-lysoPC concentration on LOX-1-catalyzed oxygenation of linoleoyl-lysoPC was examined.

[2] = target: T2, LOX-1 (soybean lipoxygenase) (Glycine max, UniProt P08170); test: pH-dependent oxygenation by LOX, initial velocity of absorbance at 234 nm; format: biochemical; settings: substrate 100 μM; for LOX activity on various pH conditions: 30 sec, 25° C.
T2 construct: purchased Sigma-Aldrich Corp (St. Louis, Mo., USA) lipoxidase Type I-B
T2 sequence (P08170 1-839): T1 sequence (P08170 1-839)
Method: FIG. 7 is an absorbance-pH graph showing the effect of pH on the rate of LOX-1-catalyzed oxygenation of linoleoyl-lysoPC where LOX-1 (0.02 units/ml) was incubated with 100 μM of linoleoyl-lysoPC (▪), 100 μM of sodium linoleate (●) or 250 μM of soybean LPC (▴) in buffers of various pHs; 200 mM phosphate (pH 6-8), 50 mM borax (pH 8.5-9.5) and 300 mM sodium bicarbonate (pH 10-11).
LOX-1 (0.02 units/ml) was incubated with linoleoyl-lysoPC (100 μM) in 500 μl of buffers of various pHs (pH 6.0-11) at 25° C. as described before (Began et al, Biochemistry 38 (1999) 13920-13927); 200 mM phosphate (pH 6-8), 50 mM borax (pH 8.5-9.5), 300 mM sodium bicarbonate (pH 10-11). Separately, the oxygenation was started by including LOX-1 (0.02 units/ml) in the reaction mixture containing sodium linoleate (100 μM) in the presence of Tween 20 (25 μM). […]
LO (840 units/ml Sigma, Saint Louis, Mo., USA) was incubated with 1-linoleoyl-lysophosphatidylcholine (100 μM) in 0.5 ml of buffers of various pHs (pH 6.0-11) as shown in Table 4 for 30 sec at 25° C.

Reticulocyte LOX = target: T3, Reticulocyte LOX (Oryctolagus cuniculus, UniProt P12530); test: Kinetics of oxygenation of linoleoylated substrates by reticulocyte LOX; format: biochemical, Rabbit; settings: reticulocyte LOX 8.2 units/ml, 50 mM phosphate buffer pH 7.4, 25° C.; for Km: substrate 3-100 μM
T3 construct: purchased Biomol Inc. (Plymouth Meeting, Pa., USA)
T3 sequence (P12530 1-663): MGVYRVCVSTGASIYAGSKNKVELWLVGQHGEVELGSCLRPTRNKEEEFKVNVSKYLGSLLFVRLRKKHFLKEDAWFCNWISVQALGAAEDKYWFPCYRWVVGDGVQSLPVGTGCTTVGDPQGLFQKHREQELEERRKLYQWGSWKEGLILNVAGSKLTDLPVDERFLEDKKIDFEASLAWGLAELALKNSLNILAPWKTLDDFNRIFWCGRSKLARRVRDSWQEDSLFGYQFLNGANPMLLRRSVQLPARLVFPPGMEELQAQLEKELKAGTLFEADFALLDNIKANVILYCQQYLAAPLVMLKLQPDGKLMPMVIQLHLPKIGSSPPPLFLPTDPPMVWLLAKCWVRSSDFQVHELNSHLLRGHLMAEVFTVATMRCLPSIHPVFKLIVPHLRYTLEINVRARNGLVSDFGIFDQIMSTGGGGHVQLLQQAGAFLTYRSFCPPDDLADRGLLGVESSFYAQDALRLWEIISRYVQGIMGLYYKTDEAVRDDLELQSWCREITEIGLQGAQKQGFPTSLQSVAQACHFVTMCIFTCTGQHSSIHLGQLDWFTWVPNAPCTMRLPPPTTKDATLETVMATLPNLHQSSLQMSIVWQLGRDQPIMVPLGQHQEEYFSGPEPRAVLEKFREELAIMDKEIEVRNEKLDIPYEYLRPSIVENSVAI
From the text: Data were expressed as means ±S.D. of results from at least three independent experiments.

Row | LOX activity on various pH conditions ([2]; pH 6.5) | LOX activity on various pH conditions ([2]; pH 9.5) | LOX activity on various pH conditions ([2]; pH 10.5) | SMILES | Km [1] [µM] | Vm [1] [units/mg] | Vm ([1]; listed as linoleoyl-lysoPC) [units/mg] | optimal pH range for oxygenation by LOX-1 ([2]; LOX-1 0.02 units/ml, pH 6-11) | LOX activity on various pH conditions ([2]; pH 6) | LOX activity on various pH conditions ([2]; pH 7) | LOX activity on various pH conditions ([2]; pH 7.5) | LOX activity on various pH conditions ([2]; pH 8) | LOX activity on various pH conditions ([2]; pH 8.5) | LOX activity on various pH conditions ([2]; pH 9) | LOX activity on various pH conditions ([2]; pH 10) | LOX activity on various pH conditions ([2]; pH 11) | Vm (Reticulocyte LOX) [units/mg] | Km (Reticulocyte LOX) [µM]
1 | – | – | – | CCCCC/C=C\C/C=C\CCCCCCCC(=O)OCC(O)COP(=O)([O-])OCC[N+](C)(C)C (stereo not shown) [Linoleoyl-lysoPC, 1-linoleoyl Lysophosphatidylcholine] | 12.9 | 167.5 ± 10.4 | 167.5 | about 9 | ◯ | ◯ | ◯ | ◯ | ◯ | ◯ | ◯ | ◯ | 1622 ± 19 | 17.5 ± 0.9
2 | ◯ | ◯ | ◯ | CCCCC/C=C\C/C=C\CCCCCCCC(=O)O [Linoleic acid, linoleic acid] | 12 ± 0.7 | 114.3 ± 6.0 | – | – | – | ◯ | ◯ | ◯ | ◯ | ◯ | ◯ | ◯ | 545 ± 5 | 12.1 ± 0.8
